Residues, ends and D or L forms follow the SMILES beside them.
Assays:
[1] = tested on: damaged nerve tissue (crushed spinal cord); test: Regeneration of damaged nerve tissue after crushing the spinal cord; type: in vivo, Wistar rats; conditions: 10 mM in saline, 0.75 ml four times a day at the site of injury for 14 days, versus saline
Experimental: Postnatal day 4 Wistar 10 rats were used for the study. The rats were divided in 2 groups: one group of 5 animals treated with drug solution, and the other group of animals treated with 0.9% sodium chloride (saline) solution. A drug solution containing cPG (from Bachem, 10 mM solution prepared in 0.9% sodium chloride (saline) solution) was administered four times a day in volumes of 0.75 ml to thoroughly flood the site of injury.
Two days after crushing the spinal cord, the dura of a rat was opened and a polyethylene tube was sutured to the vertebral spines and adjacent soft tissues so that the opening in one end lay directly over the injured part of the spinal cord. The tubing was brought through a subcutaneous tunnel so that its other end emerged at the base of the skull. A syringe adapter was attached to the external opening for injecting the drugs. All experiments were on a double-blind basis on 2 groups: one group of 5 animals treated with drug solution of 10 mM in saline solution, and the other group of 5 animals treated with 0.9% sodium chloride (saline) solution. Treatment of every animal was continued for 14 days, after which the animals were killed and histological sections prepared.
Postnatal day 4 Wistar 10 rats were used for the study. […]

[2] = tested on: extracellular levels of serotonin (5-HT), noradrenaline, dopamine, acetylcholine and histamine; test: Extracellular neurotransmitter levels in rat prefrontal cortex and hippocampus; conditions: in vivo
[3] = tested on: 6-OHDA induced nigral-striatal lesion; test: 6-OHDA induced nigral-striatal lesion, apomorphine-induced contralateral rotations; type: in vivo, Wistar rats; conditions: 1 mg (mg/kg) i.p. 2 hours post lesion; 7 days post-lesion, apomorphine 0.1 mg/kg; n=5; vehicle 290±18 or 292±21
Experimental: Twenty male Wistar rats (280-310 g) were used. After exposing the skull, 6-OHDA (8 μg in a base of 2 μl 0.9% saline containing 1% ascorbic acid) was administered into the right medial forebrain bundle (MFB) using co-ordinates AP +4.7 mm, R 1.6 mmv −8 mm under 3% halothane anaesthesia. 6-OHDA was injected through a 25G needle connected via a polyethylene catheter to a 100 μl Hamilton syringe. The 6-OHDA was infused by a microdialysis infusion pump at a rate of 0.5 μl/min. The needle was left in the brain for a further 3 minutes before being slowly withdrawn. The skin was sutured with 2.0 silk and the rats were allowed to recover from anaesthesia. The rats were housed in a holding room with free access to food and water at all times except during behavioural testing.
Cyclic PG was dissolved in saline. Four different doses of cPG (0, 0.1, 0.5, 1 mg/kg, Bachem) were administered intraperitoneally 2 hours post lesion.
At 7 days post-lesion, rats were injected with 0.1 mg/kg apomorphine and the number of contralateral rotations/hour was recorded and calculated using a computerised Rotameter (St Diego Instruments). Experimenter was blinded from the treatment groups.
Cyclic(tri(prolylglycyl)) was dissolved in saline solution. Four different doses of Cyclic(tri(prolylglycyl)) (0, 0.1, 0.5, 1 mg/kg, NeuroBiomed) were administered intraperitoneally 2 hours post lesion.
Cyclic Glycyl-2-Methyl Proline (cGMeP) was dissolved in saline solution. Four different doses of cGMeP (0, 0.1, 0.5, 1 mg/kg, NeuroBiomed) were administered intraperitoneally 2 hours post lesion.

Structure (SMILES) | nerve growth into the lesion site (histology) [1] | extracellular levels of serotonin (5-HT), noradrenaline, dopamine, acetylcholine and histamine [2] | number of contralateral rotations/hour [3]
O=C1NCC(=O)N2CCC[C@@H]12 [cPG, cyclic Prolyl Glycine] | most prolific nerve growth | increases | 154±64 rotations/hour
O=C1NCC(=O)N2CCC[C@H]2C(=O)NCC(=O)N2CCC[C@H]2C(=O)NCC(=O)N2CCCC12 (stereo partly drawn) [c(PG)3, cyclic (glycyl-L-prolylglycyl-L-prolylglycyl-L-prolyl)] (HELM PEPTIDE1{G.P.G.P.G.[O=C(C1CCCN1[*:1])[*:2]]}$PEPTIDE1,PEPTIDE1,1:R1-6:R2$$$V2.0) | prolific nerve growth |  | 172±69 rotations/hour
